In the NIST ThermoML archive (doi:10.1016/j.jct.2018.11.015):
± gives the expanded uncertainty stated by the source.

Conditions: Liquid

Structure (SMILES) | vapor or sublimation pressure (343.15 K, Transpiration method) [kPa] | vapor or sublimation pressure (353.15 K, Transpiration method) [kPa] | vapor or sublimation pressure (373.15 K, Transpiration method) [kPa] | vapor or sublimation pressure (393.15 K, Transpiration method) [kPa] | vapor or sublimation pressure (423.15 K, Transpiration method) [kPa] | vapor or sublimation pressure (313.15 K, Transpiration method) [kPa] | vapor or sublimation pressure (333.15 K, Transpiration method) [kPa] | vapor or sublimation pressure (350.9 K, Closed cell (Static) method) [kPa] | vapor or sublimation pressure (361.52 K, Closed cell (Static) method) [kPa] | vapor or sublimation pressure (371.6 K, Closed cell (Static) method) [kPa] | vapor or sublimation pressure (381.69 K, Closed cell (Static) method) [kPa] | vapor or sublimation pressure (391.77 K, Closed cell (Static) method) [kPa] | vapor or sublimation pressure (401.71 K, Closed cell (Static) method) [kPa] | vapor or sublimation pressure (411.72 K, Closed cell (Static) method) [kPa] | vapor or sublimation pressure (421.57 K, Closed cell (Static) method) [kPa]
CCCCOC(=O)c1ccccc1C(=O)OCc1ccccc1 [benzyl butyl 1,2-benzenedioate] | 1.4e-05 ± 2e-06 | 5.6e-05 ± 9e-06 | 0.00039 ± 5e-05 | 0.0022 ± 0.00031 | 0.0238 ± 0.0034 |  |  |  |  |  |  |  |  |  | 
COC(=O)c1ccccc1C(=O)OC [dimethyl 1,2-benzenedicarboxylate] |  | 0.0332 ± 0.0022 | 0.122 ± 0.007 | 0.391 ± 0.024 | 1.668 ± 0.09 | 0.00141 ± 0.00023 | 0.00789 ± 0.00067 | 0.0297 ± 0.0019 | 0.0589 ± 0.0037 | 0.1104 ± 0.0069 | 0.1986 ± 0.012 | 0.3453 ± 0.021 | 0.5751 ± 0.035 | 0.9413 ± 0.038 | 1.491 ± 0.06
